Our source for the EC50 and bioavailability values is US8575135B2 (Gilead Sciences, Inc., priority 2011, dated 2013).

pEC50: −log10 of the molar value. Read-outs that look alike come from different tables or passages of the source.

Data set [1] deals with NS5A chimeric genotype 1b Con1 replicon with genotype 4a ED43 strain NS5A gene. The data set is described as follows: microbe, parasite or virus in culture. Format: cell-based, HCV. Conditions: Hepatitis C virus; for pEC50: read-out: 4a.
The nature of data set [2]: IV and PO single dose pharmacokinetic studies in SD rats. Format: in vivo. Conditions: male, Sprague-Dawley, rat, plasma, IV infusion 1 mg/kg vs oral gavage 2 mg/kg, read-out: Rat % F. As for the experimental part: IV and PO Single Dose Pharmacokinetic Studies in SD Rats: The pharmacokinetics of selected compounds was characterized in male Sprague-Dawley (SD) rats (250-300g). […] The intravenous (IV) dosing vehicle was 5% ethanol, 35% polyethylene glycol 400 (PEG 400) and 60% water pH 2.0. […] Serial blood samples (approximately 0.3 mL each) were collected from jugular vein or other suitable vein at specified time points. […] The blood samples were collected into Vacutainer™ tubes containing EDTA-K3 as the anti-coagulant and were centrifuged at approximately 4° C. to obtain plasma. The plasma samples were stored at −20° C. until analysis by LC/MS/MS. A bioanalytical method utilizing high performance liquid chromatography coupled to tandem mass spectrometry (LC/MS/MS) was developed for analysis of the selected compound in rat plasma. Detection was performed using selected reaction monitoring (SRM); […] Standard curve and quality control samples were prepared in male rat plasma and processed in the same way as the test samples to generate quantitative data. Pharmacokinetic parameters were generated using non-compartmental pharmacokinetic analysis (Phoenix WinNonlin, version 6.3). Values below the lower limit of quantification (LLOQ) were assigned a value of zero if predose and treated as missing thereafter. Area under the curve (AUC) was calculated using the linear trapezoidal rule. The oral bioavailability (% F) was determined by comparison of the area under the curve (AUC) of the compound and/or a metabolite generated in plasma following oral administration to that generated following intravenous administration.

Data set [3] deals with 1a Pi-Rluc replicon with Q30R in genotype 1a NS5A. The data set is described as follows: microbe, parasite or virus in culture. Format: cell-based, HCV. As to conditions: Hepatitis C virus; for pEC50: read-out: 1a Q30R; for EC50: read-out: 1a Q30R (nM). The method, boiled down: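 Q30R introduced by site-directed mutagenesis into genotype 1a Pi-RLuc replicon; RNA transiently transfected into Huh-7-derived cured-51 cells.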

Data set [4] has as its system NS5A chimeric genotype 2a JFH-1 replicon with genotype 2a J6 strain NS5A gene (M31 present). The data set is described as follows: microbe, parasite or virus in culture. The format is cell-based, HCV. Conditions: Hepatitis C virus; for pEC50: read-out: 2a J6.
The test system of data set [5] is NS5A chimeric genotype 2a JFH-1 replicon with genotype 2b MD2b-1 strain NS5A gene (M31 present). The data set is described as follows: microbe, parasite or virus in culture. Format: cell-based, HCV. Conditions: Hepatitis C virus; for pEC50: read-out: 2b. The procedure, abridged:
(§1)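 Con1-based 3a and 4a chimeras carried a Pi-RLuc reporter and were transiently transfected into Huh-Lunet cells; the JFH-1-based 2b chimera (RLuc-Neo) was used transiently or as stable replicon cells.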

Data set [6] deals with NS5A chimeric genotype 1b Con1 replicon with genotype 3a S52 strain NS5A gene. The data set is described as follows: microbe, parasite or virus in culture. Conditions: Hepatitis C virus; for pEC50: read-out: 3a; for EC50: read-out: 3a (nM). The format is cell-based, HCV. The method, boiled down:
as §1

The subject of data set [7] is stable HCV 1a RLuc replicon cells (genotype 1a H77 replicon). The data set is described as follows: microbe, parasite or virus in culture. Conditions: Hepatitis C virus; for pEC50: read-out: 1a; for EC50: read-out: 1a (nM). The format is cell-based.
The test system of data set [8] is stable HCV 2a JFH-1 Rluc replicon cells (L31 present in NS5A). Nature of the data set: microbe, parasite or virus in culture. The format is cell-based. As to conditions: Hepatitis C virus; for pEC50: read-out: 2a JFH; for EC50: read-out: 2a JFH (nM).

Take `COC[C@H]1C[C@@H](c2nc3ccc4cc5c(cc4c3[nH]2)OCc2cc(-c3cnc([C@@H]4C[C@H](C)CN4C(=O)[C@@H](NC(=O)OC)C(C)C)[nH]3)ccc2-5)N(C(=O)[C@@H](NC(=O)OC)C(C)C)C1` [Example MO, methyl {(2S)-1-[(2S,4S)-2-(5-{2-[(2S,4S)-1-{(2S)-2-[(methoxycarbonyl)amino]-3-methylbutanoyl}-4-methoxymethylpyrrolidin-2-yl]-1,11-dihydroisochromeno[4′,3′:6,7]naphtho[1,2-d]imidazol-9-yl}-1H-imidazol-2-yl)-4-methylpyrrolidin-1-yl]-3-methyl-1-oxobutan-2-yl}carbamate]: the pEC50 in data set [1], in data set [3], in data set [4], in data set [5], in data set [6] and in data set [7] was above 9.00 in each case. Besides, the pEC50 in data set [8] was above 9.00. The EC50 in data set [1] (read-out: 4a (s) (nM)) came to 0.018 nM; in data set [1] (read-out: 4a (t) (nM)), 0.022 nM; in data set [3] it was 0.052 nM; in data set [4] (read-out: 2a J6 (s) (nM)), 0.471 nM; in data set [4] (read-out: 2a Jb (t) (nM)), 0.089 nM; in data set [5] (read-out: 2b (s) (nM)), 0.427 nM. For the same compound, the EC50 in data set [5] (read-out: 2b (t) (nM)) is 0.137 nM; in data set [6], 0.051 nM; in data set [7], 0.013 nM; in data set [8], 0.007 nM. Also, the bioavailability in data set [2] amounted to 7.46%.

Regarding `COC[C@H]1C[C@@H](c2nc3ccc4cc5c(cc4c3[nH]2)OCc2cc(-c3cnc([C@@H]4CC[C@H](C)N4C(=O)[C@@H](NC(=O)OC)C(C)C)[nH]3)ccc2-5)N(C(=O)[C@@H](NC(=O)OC)C(C)C)C1` [Example MP, methyl{(2S)-1-[(2S,5S)-2-(5-{2-[(2S,4S)-1-{(2S)-2-[(methoxycarbonyl)amino]-3-methylbutanoyl}-4-methoxymethylpyrrolidin-2-yl]-1,11-dihydroisochromeno[4′,3′:6,7]naphtho[1,2-d]imidazol-9-yl}-1H-imidazol-2-yl)-5-methylpyrrolidin-1-yl]-3-methyl-1-oxobutan-2-yl}carbamate], the pEC50 in data set [1], in data set [3], in data set [4], in data set [5], in data set [6] and in data set [7] was above 9.00 in each case. For the same compound, the pEC50 in data set [8] was above 9.00. Also, the EC50 was 0.013 nM in data set [1] (read-out: 4a (s) (nM)); 0.015 nM in data set [1] (read-out: 4a (t) (nM)); 0.031 nM in data set [3]; 0.336 nM in data set [4] (read-out: 2a J6 (s) (nM)); 0.039 nM in data set [4] (read-out: 2a Jb (t) (nM)); 0.184 nM in data set [5] (read-out: 2b (s) (nM)). Moreover, the EC50 in data set [5] (read-out: 2b (t) (nM)) was found to be 0.032 nM; in data set [6], 0.015 nM; in data set [7], 0.006 nM; in data set [8] it was 0.004 nM. Also, the bioavailability in data set [2] was found to be 24.2%.

Regarding `COC(=O)N[C@H](C(=O)N1[C@@H](C)CC[C@H]1c1ncc(-c2ccc3c(c2)COc2cc4c(ccc5nc([C@@H]6CC[C@H](C)N6C(=O)[C@@H](NC(=O)OC)[C@@H](C)OC)[nH]c54)cc2-3)[nH]1)[C@@H](C)OC` [Example NI, Methyl [(2S,3R)-3-methoxy-1-{(2S,5S)-2-[9-(2-{(2S,5S)-1-[N-(methoxycarbonyl)-O-methyl-L-threonyl]-5-methylpyrrolidin-2-yl}-1H-imidazol-5-yl)-1,11-dihydroisochromeno[4′,3′:6,7]naphtho[1,2-d]imidazol-2-yl]-5-methylpyrrolidin-1-yl}-1-oxobutan-2-yl]carbamate], the pEC50 in data set [1], in data set [3], in data set [4], in data set [5], in data set [6] and in data set [7] was above 9.00 each time. Also, in data set [8], the pEC50 was above 9.00. The EC50 in data set [1] (read-out: 4a (t) (nM)) was found to be 0.02 nM; in data set [3], 0.059 nM; in data set [4] (read-out: 2a J6 (s) (nM)) it was 0.169 nM; in data set [4] (read-out: 2a Jb (t) (nM)), 0.026 nM; in data set [5] (read-out: 2b (s) (nM)), 0.054 nM; in data set [5] (read-out: 2b (t) (nM)), 0.019 nM. Moreover, the results for the EC50 in data set [6], in data set [7] and in data set [8] were 0.022 nM, 0.015 nM and 0.007 nM, respectively. Further, the bioavailability in data set [2] came to 24.1%.

Regarding `COC[C@H]1C[C@@H](c2nc3ccc4cc5c(cc4c3[nH]2)OCc2cc(-c3cnc([C@@H]4CC[C@H](C)N4C(=O)[C@@H](NC(=O)OC)C(C)C)[nH]3)ccc2-5)N(C(=O)[C@H](NC(=O)OC)c2ccccc2)C1` [Example NP, Methyl {(2S)-1-[(2S,5S)-2-(5-{2-[(2S,4S)-1-{(2R)-2-[(methoxycarbonyl)amino]-2-phenylacetyl}-4-(methoxymethyl)pyrrolidin-2-yl]-1,11 dihydroisochromeno[4′,3′:6,7]naphtho[1,2-d]imidazol-9-yl}-1H-imidazol-2-yl)-5-methylpyrrolidin-1-yl]-3-methyl-1-oxobutan-2-yl}carbamate], the pEC50 in data set [1], in data set [3], in data set [4], in data set [5], in data set [6] and in data set [7] was above 9.00 in each case. For the same compound, the pEC50 in data set [8] was above 9.00. For the same compound, the EC50 in data set [1] (read-out: 4a (s) (nM)) was found to be 0.028 nM; in data set [3], 0.032 nM; in data set [4] (read-out: 2a J6 (s) (nM)), 0.096 nM; in data set [4] (read-out: 2a Jb (t) (nM)) it was 0.01 nM; in data set [5] (read-out: 2b (s) (nM)), 0.043 nM; in data set [5] (read-out: 2b (t) (nM)) it was 0.011 nM. For the same compound, the results for the EC50 in data set [6], in data set [7] and in data set [8] were 0.02 nM, 0.014 nM and 0.007 nM, respectively. Also, the bioavailability in data set [2] stood at 26.1%.

Consider `COC[C@H]1C[C@@H](c2nc3ccc4cc5c(cc4c3[nH]2)OCc2cc(-c3cnc([C@@H]4C[C@H](C)CN4C(=O)[C@H](NC(=O)OC)c4ccccc4)[nH]3)ccc2-5)N(C(=O)[C@@H](NC(=O)OC)C(C)C)C1` [Example PF, methyl {1-[2-{9-[2-(1-{[(methoxycarbonyl)amino](phenyl)acetyl}-4-methylpyrrolidin-2-yl)-1H-imidazol-5-yl]-1,11-dihydroisochromeno[4′,3′:6,7]naphtho[1,2-d]imidazol-2-yl}-4-(methoxymethyl)pyrrolidin-1-yl]-3-methyl-1-oxobutan-2-yl}carbamate], for which the pEC50 in data set [1], in data set [3], in data set [4], in data set [5], in data set [6] and in data set [7] was above 9.00 in each case. For the same compound, in data set [8], the pEC50 was above 9.00. In addition, the EC50 was 0.018 nM in data set [1] (read-out: 4a (s) (nM)); 0.05 nM in data set [1] (read-out: 4a (t) (nM)); 0.034 nM in data set [3]; 0.127 nM in data set [4] (read-out: 2a J6 (s) (nM)); 0.025 nM in data set [4] (read-out: 2a Jb (t) (nM)); 0.117 nM in data set [5] (read-out: 2b (s) (nM)). Also, the EC50 stood at 0.023 nM in data set [5] (read-out: 2b (t) (nM)), 0.072 nM in data set [6], 0.032 nM in data set [7] and 0.014 nM in data set [8]. Also, the bioavailability in data set [2] is 4.3%.
